{
  "source": "PubChem BioAssay AID1963977",
  "about": "(Molecular Pharmacology Branch, DTP, NCI, 2024)",
  "tested_on": "624824-186-R-J3-PDC multicell spheroids, viability",
  "assay": "Anticancer human tumor 624824-186-R-J3-PDC patient-derived colon adenocarcinoma cell line growth inhibition [PI3K]",
  "details": "for viability, T/C: stronger effect = lower value",
  "method_in_brief": "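Multi-cell spheroids combine tumor cells with HUVEC and human MSCs, treated with targeted agents alone or with inavolisib, alpelisib, duvelisib or copanlisib. Concentrations fall in half-log steps from at or near clinical Cmax, or from 10 microM where Cmax is unknown; viability read-out.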",
  "note": "Where “and” joins values, the source holds several entries; their conditions need not be identical. Identical values can stand only once.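 Note: spheroids exposed to agents for seven days before luminescence read.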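 Throughout, for viability, T/C: luminescent signal used as a stand-in for spheroid viability; percent viability relative to DMSO vehicle control wells taken as 100%.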",
  "data": [
    {"smiles": "CC(C)NCC(C(=O)N1CCN(c2ncnc3c2C(C)CC3O)CC1)c1ccc(Cl)cc1", "note": "(centres undefined)", "values": [
      {"measurement": "viability, T/C", "setting": "compound 0.0316 µM", "result": "101% [middle of 4 runs]"},
      {"measurement": "viability, T/C", "setting": "compound 0.1 µM", "result": "101% [middle of 4 runs]"},
      {"measurement": "viability, T/C", "setting": "compound 0.316 µM", "result": "102% (2×) and 100% and 105%"},
      {"measurement": "viability, T/C", "setting": "compound 1 µM", "result": "82% [middle of 4 runs]"},
      {"measurement": "viability, T/C", "setting": "compound 3.16 µM", "result": "67.8% [middle of 4 runs]"},
      {"measurement": "viability, T/C", "setting": "compound 10 µM", "result": "57.8% [middle of 4 runs]"},
      {"measurement": "IC50", "setting": "curve of compound", "result": "> 10 µM and 6.5 µM"}
    ]},
    {"smiles": "CC(C)NCC(C(=O)N1CCN(c2ncnc3c2C(C)CC3O)CC1)c1ccc(Cl)cc1", "note": "(centres undefined) + Cc1nc(NC(=O)N2CCCC2C(N)=O)sc1-c1ccnc(C(C)(C)C(F)(F)F)c1", "values": [
      {"measurement": "IC50", "setting": "curve of first compound, second compound 0.0316 µM", "result": 5.34, "unit": "µM"},
      {"measurement": "IC50", "setting": "curve of first compound, second compound 0.1 µM", "result": 5.11, "unit": "µM"},
      {"measurement": "IC50", "setting": "curve of first compound, second compound 0.316 µM", "result": 4.59, "unit": "µM"},
      {"measurement": "IC50", "setting": "curve of first compound, second compound 1 µM", "result": 2.85, "unit": "µM"},
      {"measurement": "IC50", "setting": "curve of first compound, second compound 3.16 µM", "result": 2.03, "unit": "µM"},
      {"measurement": "IC50", "setting": "curve of first compound, second compound 10 µM", "result": 1.42, "unit": "µM"},
      {"measurement": "viability, T/C", "setting": "second compound 0.0316 µM, first compound 0.0316 µM", "result": 108, "unit": "%"},
      {"measurement": "viability, T/C", "setting": "second compound 0.0316 µM, first compound 0.1 µM", "result": 108, "unit": "%"},
      {"measurement": "viability, T/C", "setting": "second compound 0.0316 µM, first compound 0.316 µM", "result": 99, "unit": "%"},
      {"measurement": "viability, T/C", "setting": "second compound 0.0316 µM, first compound 1 µM", "result": 78.2, "unit": "%"},
      {"measurement": "viability, T/C", "setting": "second compound 0.0316 µM, first compound 3.16 µM", "result": 59.8, "unit": "%"},
      {"measurement": "viability, T/C", "setting": "second compound 0.0316 µM, first compound 10 µM", "result": 39.7, "unit": "%"},
      {"measurement": "viability, T/C", "setting": "second compound 0.1 µM, first compound 0.0316 µM", "result": 107, "unit": "%"},
      {"measurement": "viability, T/C", "setting": "second compound 0.1 µM, first compound 0.1 µM", "result": 92.8, "unit": "%"},
      {"measurement": "viability, T/C", "setting": "second compound 0.1 µM, first compound 0.316 µM", "result": 93.2, "unit": "%"},
      {"measurement": "viability, T/C", "setting": "second compound 0.1 µM, first compound 1 µM", "result": 77.1, "unit": "%"},
      {"measurement": "viability, T/C", "setting": "second compound 0.1 µM, first compound 3.16 µM", "result": 53.2, "unit": "%"},
      {"measurement": "viability, T/C", "setting": "second compound 0.1 µM, first compound 10 µM", "result": 43.2, "unit": "%"},
      {"measurement": "viability, T/C", "setting": "second compound 0.316 µM, first compound 0.0316 µM", "result": 104, "unit": "%"},
      {"measurement": "viability, T/C", "setting": "second compound 0.316 µM, first compound 0.1 µM", "result": 104, "unit": "%"},
      {"measurement": "viability, T/C", "setting": "second compound 0.316 µM, first compound 0.316 µM", "result": 91.1, "unit": "%"},
      {"measurement": "viability, T/C", "setting": "second compound 0.316 µM, first compound 1 µM", "result": 75.8, "unit": "%"},
      {"measurement": "viability, T/C", "setting": "second compound 0.316 µM, first compound 3.16 µM", "result": 53.3, "unit": "%"},
      {"measurement": "viability, T/C", "setting": "second compound 0.316 µM, first compound 10 µM", "result": 41.9, "unit": "%"},
      {"measurement": "viability, T/C", "setting": "second compound 1 µM, first compound 0.0316 µM", "result": 95.5, "unit": "%"},
      {"measurement": "viability, T/C", "setting": "second compound 1 µM, first compound 0.1 µM", "result": 105, "unit": "%"},
      {"measurement": "viability, T/C", "setting": "second compound 1 µM, first compound 0.316 µM", "result": 86.8, "unit": "%"},
      {"measurement": "viability, T/C", "setting": "second compound 1 µM, first compound 1 µM", "result": 72.6, "unit": "%"},
      {"measurement": "viability, T/C", "setting": "second compound 1 µM, first compound 3.16 µM", "result": 46.5, "unit": "%"},
      {"measurement": "viability, T/C", "setting": "second compound 1 µM, first compound 10 µM", "result": 39.5, "unit": "%"},
      {"measurement": "viability, T/C", "setting": "second compound 3.16 µM, first compound 0.0316 µM", "result": 86.8, "unit": "%"},
      {"measurement": "viability, T/C", "setting": "second compound 3.16 µM, first compound 0.1 µM", "result": 77.4, "unit": "%"},
      {"measurement": "viability, T/C", "setting": "second compound 3.16 µM, first compound 0.316 µM", "result": 79.8, "unit": "%"},
      {"measurement": "viability, T/C", "setting": "second compound 3.16 µM, first compound 1 µM", "result": 59, "unit": "%"},
      {"measurement": "viability, T/C", "setting": "second compound 3.16 µM, first compound 3.16 µM", "result": 44.2, "unit": "%"},
      {"measurement": "viability, T/C", "setting": "second compound 3.16 µM, first compound 10 µM", "result": 32.1, "unit": "%"},
      {"measurement": "viability, T/C", "setting": "second compound 10 µM, first compound 0.0316 µM", "result": 68.1, "unit": "%"},
      {"measurement": "viability, T/C", "setting": "second compound 10 µM, first compound 0.1 µM", "result": 64.9, "unit": "%"},
      {"measurement": "viability, T/C", "setting": "second compound 10 µM, first compound 0.316 µM", "result": 70.8, "unit": "%"},
      {"measurement": "viability, T/C", "setting": "second compound 10 µM, first compound 1 µM", "result": 52.5, "unit": "%"},
      {"measurement": "viability, T/C", "setting": "second compound 10 µM, first compound 3.16 µM", "result": 41.2, "unit": "%"},
      {"measurement": "viability, T/C", "setting": "second compound 10 µM, first compound 10 µM", "result": 32.8, "unit": "%"}
    ]}
  ]
}
